According to the supplement of paper PMC4862054:

How the values were obtained:
Settings in all cases: incubation time: 72 h
[1] = system: BT-474; assay: normalised response (% of control), CellTox Green; higher = less cell death (100 = DMSO, 0 = benzethonium chloride kill control)
Summary of the method: (§1)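 Two readouts were taken after 72 h: CellTox Green fluorescence (485/520 nm) first, then CellTiter-Glo luminescence after 10 min at room temperature. Breast cancer cell lines had been seeded as 20 µl suspension into 384-well plates holding compound at 5 concentrations in 10-fold steps across a compound-specific 10,000-fold range. Each value is a normalised signal at a single concentration, with plates scaled to 0.1 % DMSO (100) and a positive kill control (0).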

[2] = system: BT-549; assay: as above
Summary of the method: as §1

[3] = system: CAL-120; assay: as above
Summary of the method: as §1

[4] = system: CAL-148; assay: as above
Summary of the method: as §1

[5] = system: CAL-51; assay: as above
Summary of the method: as §1

[6] = system: CAL-85-1; assay: as above
Summary of the method: as §1

[7] = system: DU-4475; assay: as above
Summary of the method: as §1

[8] = system: HCC1143; assay: as above
Summary of the method: as §1

[9] = system: HCC1599; assay: as above
Summary of the method: as §1

[10] = system: HCC1937; assay: as above
Summary of the method: as §1

[11] = system: HDQ-P1; assay: as above
Summary of the method: as §1

[12] = system: Hs578T; assay: as above
Summary of the method: as §1

[13] = system: MCF-10A; assay: as above
Summary of the method: as §1

[14] = system: MDA-MB-231; assay: as above
Summary of the method: as §1

[15] = system: MDA-MB-436; assay: as above
Summary of the method: as §1

[16] = system: MDA-MB-453; assay: as above
Summary of the method: as §1

[17] = system: MDA-MB-468; assay: as above
Summary of the method: as §1

[18] = system: MFM-223; assay: as above
Summary of the method: as §1

[19] = system: BT-474; assay: normalised response (% of control), CellTiter-Glo; higher = more viable cells (100 = DMSO, 0 = benzethonium chloride kill control)
Protocol: (§2)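 DSRT, 72 h incubation, CellTox Green / CellTiter-Glo readout. Signal is normalised to DMSO and benzethonium chloride controls. Value is the normalised response at dose 3.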

[20] = system: BT-549; assay: as above
Protocol: as §2

[21] = system: CAL-120; assay: as above
Protocol: as §2

[22] = system: CAL-148; assay: as above
Protocol: as §2

[23] = system: CAL-51; assay: as above
Protocol: as §2

[24] = system: CAL-85-1; assay: as above
Protocol: as §2

[25] = system: DU-4475; assay: as above
Protocol: as §2

[26] = system: HCC1143; assay: as above
Protocol: as §2

[27] = system: HCC1599; assay: as above
Protocol: as §2

[28] = system: HCC1937; assay: as above
Protocol: as §2

[29] = system: HDQ-P1; assay: as above
Protocol: as §2

[30] = system: Hs578T; assay: as above
Protocol: as §2

[31] = system: MCF-10A; assay: as above
Protocol: as §2

[32] = system: MDA-MB-231; assay: as above
Protocol: as §2

[33] = system: MDA-MB-436; assay: as above
Protocol: as §2

[34] = system: MDA-MB-453; assay: as above
Protocol: as §2

[35] = system: MDA-MB-468; assay: as above
Protocol: as §2

[36] = system: MFM-223; assay: as above
Protocol: as §2

[37] = system: SK-BR-3; assay: as above
Protocol: as §2

SMILES	normalised response [1] [%]	normalised response [2] [%]	normalised response [3] [%]	normalised response [4] [%]	normalised response [5] [%]	normalised response [6] [%]	normalised response [7] [%]	normalised response [8] [%]	normalised response [9] [%]	normalised response [10] [%]	normalised response [11] [%]	normalised response [12] [%]	normalised response [13] [%]	normalised response [14] [%]	normalised response [15] [%]	normalised response [16] [%]	normalised response [17] [%]	normalised response [18] [%]	normalised response [19] [%]	normalised response [20] [%]	normalised response [21] [%]	normalised response [22] [%]	normalised response [23] [%]	normalised response [24] [%]	normalised response [25] [%]	normalised response [26] [%]	normalised response [27] [%]	normalised response [28] [%]	normalised response [29] [%]	normalised response [30] [%]	normalised response [31] [%]	normalised response [32] [%]	normalised response [33] [%]	normalised response [34] [%]	normalised response [35] [%]	normalised response [36] [%]	normalised response [37] [%]
CO[C@H]1C[C@@H]2CC[C@@H](C)[C@@](O)(O2)C(=O)C(=O)N2CCCC[C@H]2C(=O)O[C@H]([C@H](C)C[C@@H]2CC[C@@H](OCCO)[C@H](OC)C2)CC(=O)[C@H](C)/C=C(\C)[C@@H](O)[C@@H](OC)C(=O)[C@H](C)C[C@H](C)/C=C/C=C/C=C/1C [Everolimus] (1 nM)	96.7	79.8	106	85.8	94.4	109	96.3	79.1	89.6	99.9	83.1	67.1	80	105	98.3	103	121	102	91.9	63.6	77.8	72	72.1	69.3	83	72.4	98.2	75.2	91.9	70.6	91.6	82.9	83.7	82.7	57.1	71.6	65.9
COc1ccc(-c2ccc3c(N4CCOC[C@@H]4C)nc(N4CCOC[C@@H]4C)nc3n2)cc1CO [AZD8055] (100 nM)	96.5	103	98.2	79.2	82.3	104	94.9	80.1	87.7	97.7	109	93.9	84.6	94.6	97.7	85.5	13.6	67	72	40.2	41.5	49.5	35.7	41.1	80.1	45.1	93	66.9	51.3	49.7	50.4	62.3	51.5	42.1	47.3	36.9	27.5
CCCCCCCCc1ccc(CCC(N)(CO)CO)cc1 [Fingolimod] (100 nM)	101	88.7	104	87.9	109	102	100	103	111	115	91.7	110	95.9	78.8	97.3	109	122	103	99.9	95.8	97	101	92.5	105	99.7	100	107	96	103	97.4	105	100	100	97.4	107	106	107
